Source: BindingDB's records for doi:10.1016/j.bmcl.2011.12.066 (Daiichi Sankyo, 2012)

Target: T1, Peroxisome proliferator-activated receptor gamma (Homo sapiens, UniProt P37231)
T1 sequence (P37231 whole entry): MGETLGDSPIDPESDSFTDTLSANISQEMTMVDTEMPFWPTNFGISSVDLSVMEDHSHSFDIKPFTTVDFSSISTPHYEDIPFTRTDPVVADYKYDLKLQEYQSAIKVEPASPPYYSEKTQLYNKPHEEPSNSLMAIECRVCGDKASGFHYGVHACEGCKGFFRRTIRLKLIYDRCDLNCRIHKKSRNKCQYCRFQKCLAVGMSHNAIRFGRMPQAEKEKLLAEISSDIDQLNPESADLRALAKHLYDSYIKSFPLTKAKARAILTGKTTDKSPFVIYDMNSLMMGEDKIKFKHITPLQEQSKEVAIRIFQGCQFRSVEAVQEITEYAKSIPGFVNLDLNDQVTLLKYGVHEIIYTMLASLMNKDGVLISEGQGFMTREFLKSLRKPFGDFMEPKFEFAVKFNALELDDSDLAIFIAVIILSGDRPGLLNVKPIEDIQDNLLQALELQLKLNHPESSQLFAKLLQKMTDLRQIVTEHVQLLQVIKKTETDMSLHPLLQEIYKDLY
Test: Partial agonist activity at human PPARgamma expressed in MG-63 cells by reporter gene-based transactivation assay

| SMILES | EC50 [nM] |
| --- | --- |
| COC(=O)CCc1cc(CNC(=O)c2c(OC)cc(O)c3c2OC2=CC(=O)C(C(C)=O)C(=O)[C@]23C)c2ccccc2c1 (some centres not stated) | 130 |
| COc1cc(O)c2c(c1C(=O)NCc1cc(O)cc3ccccc13)OC1=CC(=O)C(C(C)=O)C(=O)[C@]12C (some centres not stated) | 130 |
